According to patent US20230355647A1, “Marker for determining anti-cancer effects of mitochondrial oxidative phosphorylation pathway inhibitor” (NANJING SHIJIANG MEDICINE TECHNOLOGY CO., LTD, priority 2020, published 2023):

What was measured:
[1] = system: SW48; assay: Cell viability (CellTiter-Glo), SW48; assay type: cell-based; details: Homo sapiens; SW48 cell line, 3-4 days of culture
Experimental: (§1) Cell viability was detected using the Promega CellTiter-Glo kit, the kit reflected cell viability by directly measuring intracellular ATP content. The inhibitory effect (IC50 value) of Gboxin, a mitochondrial oxidative phosphorylation pathway inhibitor, on different tumor cell lines was tested in the Example. The name, source, and culture condition of each tumor cell line were as follows: Cell line SW48 (ATCC, No. CCL-231) was cultured in 10% fetal bovine serum-containing Leibovitz's L-15 medium (+P/S). […] Cell viability was detected using the Promega CellTiter-Glo kit, the kit reflected cell viability by directly measuring intracellular ATP content.

[2] = system: GB-1; assay: Cell viability (CellTiter-Glo), GB-1; assay type: cell-based; details: Homo sapiens; GB-1 cell line, 3-4 days of culture
Experimental: (§2) Cell viability was detected using the Promega CellTiter-Glo kit, the kit reflected cell viability by directly measuring intracellular ATP content. The inhibitory effect (IC50 value) of Gboxin, a mitochondrial oxidative phosphorylation pathway inhibitor, on different tumor cell lines was tested in the Example. The name, source, and culture condition of each tumor cell line were as follows:
Cell line GB-1 (JCRB, No. IFO50489) was cultured in 10% fetal bovine serum-containing DMEM medium (+P/S).
(§3) The above tumor cells were cultured in the relevant medium (+P/S), and incubated for 3 h, then the gradient diluted Gboxin was added, and IC50 (50% inhibiting concentration) was measured after 3-4 days of culture.
Cell viability was detected using the Promega CellTiter-Glo kit, the kit reflected cell viability by directly measuring intracellular ATP content. In this experiment, the IC50 values of Oligomycin A or IACS-010759, a mitochondrial oxidative phosphorylation pathway inhibitor, on different tumor cells was determined.
The different tumor cells were cultured in the relevant medium (+P/S) as shown in Example 2, and incubated for 3 h, then the gradient diluted Oligomycin A or IACS-010759 was added respectively, and IC50 (50% inhibiting concentration) of Oligomycin A or IACS-010759 on different tumor cells was measured after 3-4 days of culture.

[3] = system: mitochondrial oxidative phosphorylation pathway; assay: Oxygen consumption of NCI-H82 cell, Seahorse XFe metabolic analyzer; assay type: cell-based, human; details: 2 μM inhibitor, detection within 0.5 h, compared with control group, FIG. 1 (n=3)
Excerpt: The oxygen was mainly consumed by mitochondrial oxidative phosphorylation pathway in the cell, thus the determination of oxygen consumption rate (OCR) of mitochondria could directly reflect the activity of mitochondrial oxidative phosphorylation pathway. The oxygen consumption of NCI-H82 cell in the presence or absence of Oligomycin A, Gboxin, S-Gboxin and IACS-010759, mitochondrial oxidative phosphorylation pathway inhibitors, was detected using Seahorse XFe metabolic analyzer in the present Example. NCI-H82 cell (ATCC, No. […] The control group in absence of mitochondrial oxidative phosphorylation pathway inhibitor was set. The detection of cell oxygen consumption was finished within 0.5 h.

[4] = system: G-401; assay: Cell viability (CellTiter-Glo), G-401; assay type: cell-based; details: Homo sapiens; G-401 cell line, 3-4 days of culture
Experimental: as §1, with “G-401” for “SW48”, “CRL-1441)” for “CCL-231)”, “McCoy's 5a” for “Leibovitz's L-15”

[5] = system: A-375; assay: Cell viability (CellTiter-Glo), A-375; assay type: cell-based; details: Homo sapiens; A-375 cell line, 3-4 days of culture
Experimental: as §2
Cell line A-375 (ATCC, No. CRL-1619) was cultured in 10% fetal bovine serum-containing DMEM medium (+P/S).
as §3

[6] = system: U-87 MG; assay: Cell viability (CellTiter-Glo), U-87 MG; assay type: cell-based; details: Homo sapiens; U-87 MG cell line, 3-4 days of culture
Experimental: as §2
Cell line U-87 MG (ATCC, No. HTB-14) was cultured in 10% fetal bovine serum-containing EMEM medium (+P/S).
as §3

[7] = system: HH; assay: Cell viability (CellTiter-Glo), HH; assay type: cell-based; details: Homo sapiens; HH cell line, 3-4 days of culture
Experimental: as §2
Cell line HH (ATCC, No. CRL-2105) was cultured in 10% fetal bovine serum-containing RPMI1640 medium (+P/S).
as §3

[8] = system: Jurkat, Clone E6-1; assay: Cell viability (CellTiter-Glo), Jurkat, Clone E6-1; assay type: cell-based; details: Homo sapiens, Clone E6-1 cell line, 3-4 days of culture
Experimental: as §2
Cell line Jurkat, Clone E6-1 (ATCC, No. TIB-152) was cultured in 10% fetal bovine serum-containing RPMI1640 medium (+P/S).
as §3

[9] = system: OCI-AML-5; assay: Cell viability (CellTiter-Glo), OCI-AML-5; assay type: cell-based; details: Homo sapiens; OCI-AML-5 cell line, 3-4 days of culture
Experimental: as §2
Cell line OCI-AML-5 (DSMZ, No. ACC-247) was cultured in alpha-MEM medium containing 20% fetal bovine serum and 10% volume fraction of 5637 cell line adjusted medium (+P/S).
as §3

[10] = system: LS 180; assay: Cell viability (CellTiter-Glo), LS 180; assay type: cell-based; details: Homo sapiens, LS180; LS 180 cell line, 3-4 days of culture
Experimental: as §2
Cell line LS 180 (ATCC, No. CL-187) was cultured in 10% fetal bovine serum-containing EMEM medium (+P/S).
as §3

[11] = system: NCI-H82; assay: Cell viability (CellTiter-Glo), NCI-H82; assay type: cell-based; details: Homo sapiens; NCI-H82 cell line, 3-4 days of culture
Experimental: as §1, with “NCI-H82” for “SW48”, “HTB-175)” for “CCL-231)”, “RPMI1640” for “Leibovitz's L-15”

[12] = system: MJ; assay: Cell viability (CellTiter-Glo), MJ; assay type: cell-based; details: Homo sapiens; MJ cell line, 3-4 days of culture
Experimental: as §2
Cell line MJ (ATCC, No. CRL-8294) was cultured 20% fetal bovine serum-containing IMDM medium (+P/S).
as §3

[13] = system: NCI-H196; assay: Cell viability (CellTiter-Glo), NCI-H196; assay type: cell-based; details: NCI-H196 cell line, 3-4 days of culture
Experimental: as §2
Cell line NCI-H196 (ATCC, No. CRL-5823) was cultured in 10% fetal bovine serum-containing RPMI1640 medium (+P/S).
as §3

CCc1n(CC(=O)O[C@@H]2C[C@H](C)CC[C@H]2C(C)C)c2ccccc2[n+]1C.[Cl-] [Gboxin]
IC50 [1]: 1.54 µM
IC50 [2]: > 30 µM
oxygen consumption of NCI-H82 cells [3]: significantly inhibit
IC50 [4]: 0.777 µM
IC50 [5]: 4.65 µM
IC50 [6]: 12.3 µM
IC50 [7]: 2.67 µM
IC50 [8]: 3.51 µM
IC50 [9]: 2.74 µM
IC50 [10]: 8.9 µM
IC50 [11]: 0.398 µM
IC50 [12]: 12.9 µM
IC50 [13]: 19.3 µM
